Data: the NIST ThermoML archive (doi:10.1021/je201211f)

What was measured:
[1] = refractive index (Na D-line) (dimensionless); xn = mol fraction of the nth substance listed; details: 298.15 K, 101 kPa, Liquid, Standard Abbe refractometry
[2] = xn = mol fraction of the nth substance listed; details: 101 kPa, Liquid; for mass density: Vibrating tube method; for viscosity: Capillary tube (Ostwald / Ubbelohde) method

ClC=C(Cl)Cl [trichloroethene] + Cc1ccc(C)cc1
[1]
Details	refractive index
x1 = 0.0897	1.4921
x1 = 0.154	1.4911
x1 = 0.2402	1.4897
x1 = 0.318	1.4885
x1 = 0.399	1.4873
x1 = 0.4801	1.486
x1 = 0.5624	1.4844
x1 = 0.64	1.4829
x1 = 0.721	1.4811
x1 = 0.7988	1.4794
x1 = 0.8834	1.4775
x1 = 0.961	1.4753

[2]
Details	mass density, 293.15 K [kg/m3]	mass density, 298.15 K [kg/m3]	mass density, 303.15 K [kg/m3]	viscosity, 298.15 K [mPa·s]
x1 = 0.0843	899.17	894.6	890.02	–
x1 = 0.0897	–	–	–	0.6075
x1 = 0.154	–	–	–	0.606
x1 = 0.1806	944.97	940.12	935.27	–
x1 = 0.2402	–	–	–	0.6043
x1 = 0.2528	980.96	975.88	970.8	–
x1 = 0.318	–	–	–	0.6026
x1 = 0.3239	1017.91	1012.59	1007.28	–
x1 = 0.399	–	–	–	0.5999
x1 = 0.403	1060.83	1055.25	1049.65	–
x1 = 0.4801	–	–	–	0.5968
x1 = 0.49	1110.44	1104.53	1098.61	–
x1 = 0.5624	–	–	–	0.594
x1 = 0.5689	1157.79	1151.57	1145.35	–
x1 = 0.6381	1201.31	1194.8	1188.25	–
x1 = 0.64	–	–	–	0.5915
x1 = 0.718	–	–	–	0.5888
x1 = 0.7202	1255.5	1248.62	1241.69	–
x1 = 0.7975	1309.15	1301.88	1294.56	–
x1 = 0.8	–	–	–	0.5861
x1 = 0.8834	–	–	–	0.5834
x1 = 0.8925	1379.16	1371.4	1363.59	–
x1 = 0.9582	1430.28	1422.14	1413.95	–
x1 = 0.9632	–	–	–	0.5808
